# From patent US8598339B2, “Withanolide isolated from Physalis longifolia and analogs and methods of use thereof” (University of Kansas, priority 2011, dated 2013)
# Where two headings read alike, the source gives them in different places.
# Columns and labels:
# Type in all cases: cell-based
# [1] = tested on: melanoma cells B16F10; test: MTS cell viability assay, B16F10; conditions: Mus musculus; for IC50: B16-F10, Table 1, 72-hour treatment
# Method: (§1) Human carcinoid cells, NCI-H727 (ATCC, Manassas, Va.), were cultured under standard conditions. Squamous cell carcinoma of head and neck cells, MDA1986 (Myers, et al. (2002) Clin. Cancer Res. 8:293) and JMAR (Swan, et al. (2003) Oral Oncol. 39:648-55); and melanoma cells lines B16F10 (ATCC, Manassas, Va.) and SKMEL28 (CLS, Eppelheim, Germany) were cultured in DMEM medium supplemented with 10% heat-inactivated fetal bovine serum (Sigma-Aldrich, St. Louis, Mo.), 1×MEM-essential amino acid, 1×MEM vitamin, and penicillin/streptomycin (Sigma-Aldrich, St. Louis, Mo.) in a humid environment of 5% CO2 at 37° C. Activity of withanolides against DRO81-1 and TT medullary thyroid cancer cells was also determined.
# (§2) Cells were cultured in 96 well plates at a concentration of 1-2×10^4 cells/mL. Cell viability was assessed with the nonradioactive cell proliferation MTS assay using Cell Titer 96AQUEOUS One Solution Reagent (PROMEGA, Madison, Wis.), according to the manufacturer's instruction. After a 72-hour treatment, 20 μL of Cell Titer 96AQUEOUS One Solution Reagent were added to each well and incubated for 3 hours at 37° C. 5% CO2, and formazan absorbance was measured at 490 nm.
# [2] = tested on: human melanoma SKMEL28 cells; test: MTS cell viability assay, SKMEL28; conditions: Homo sapiens; for IC50: SK-MEL-28, 72 h
# Method: as §1, §2
# A cell viability MTS assay was carried out to determine the anti-cancer effect of the withanolides on human melanoma SKMEL28 cells. Cells were treated for 72 hours and cell viability was determined according to the manufacturer's instruction.
# [3] = tested on: squamous cell carcinoma of head and neck cells MDA1986; test: MTS cell viability assay, MDA1986; conditions: Table 1, 72-hour treatment
# Method: as §1, §2
# [4] = tested on: squamous cell carcinoma of head and neck cells JMAR; test: MTS cell viability assay, JMAR; conditions: for IC50: Table 1, 72-hour treatment
# Method: as §1, §2
# [5] = tested on: human carcinoid cells NCI-H727; test: MTS cell viability assay, NCI-H727
# Method: as §1, §2
# [6] = tested on: MRC-5; test: MTS cell viability assay, MRC-5; conditions: Homo sapiens, MRC5, Table 1, 72-hour treatment
# [7] = tested on: DRO81-1 medullary thyroid cancer cells; test: MTS cell viability assay, DRO81-1
# Method: as §1, §2
# [8] = tested on: TT medullary thyroid cancer cells; test: MTS cell viability assay, TT; conditions: Table 1, 72-hour treatment
# Method: as §1, §2
# [9] = tested on: SUP-B15 Ph+ ALL cells; test: MTS assay, SUP-B15
# Method: (§3) Cell proliferation was analyzed using MTS assay and Trypan Blue exclusion. Annexin V-FITC/Propidium Iodide flow cytometry was used to analyze the induction of apoptosis in SUP-B15 cells after treatment with anolides. Cell cycle analysis was performed using propidium iodide flow cytometry. Modulation of BCR-ABL and downstream effector proteins was determined by western blot analysis. Syngery between withanolides and TKIs was evaluated using MTS viability to calculate combination indices. Apoptotic synergy was evaluated using Annexin V/PI.
# [10] = tested on: normal MRC-5 fibroblasts; test: MTS assay, normal MRC-5 fibroblasts (Example 7); conditions: Homo sapiens, MRC5
# Method: as §3
# [11] = tested on: SUP-B15 cells; test: Trypan blue exclusion assay, SUP-B15; conditions: 5×, 2×, 1×, 0.5×IC50
# Method: as §3, with “Syngery” left out
# [12] = tested on: SUP-B15 cells; test: Annexin V/propidium iodide apoptosis, SUP-B15; conditions: 48 hour; approximately 10×IC50 (Withaferin A, X001), 4×IC50 (X003)
# Method: as §3
# At no concentrations was the population of cells in necrosis significant.
# [13] = tested on: SUP-B15 cells; test: Cell cycle analysis by PI flow cytometry, SUP-B15; conditions: 48 hour treatment
# Method: as §3
# [14] = tested on: SUP-B15 Ph+ALL cells; test: Combination with imatinib, MTS viability, SUP-B15; conditions: 16 combinations
# Method: as §3
# [15] = tested on: HS766T; test: Pancreatic cancer cell viability, HS766T
# Method: (§4) The activity of the withanolides of this invention were tested in pancreatic cancer cells. […] Moreover, IC50 values were determined for these compounds (Table 14).
# [16] = tested on: Mia PaCa-2; test: Pancreatic cancer cell viability, Mia PaCa-2; conditions: Homo sapiens
# Method: as §4
# [17] = tested on: heat shock factor (HSF) / HSE-luciferase in Hs766T cells; test: HSE-luciferase reporter, Hs766T; set-up: dose or concentration left out as unconfirmed; conditions: heat shock 42° C. 30 minutes; recovery 8 hours
# Method: To monitor the activation of heat shock factor (HSF) and heat shock-mediated signal transduction pathways, Hs766T cells were transfected with a HSE-luciferase construct, then treated with 3 mM of the selected withanolides for 8 hours. The cells were heat shocked at 42° C. for 30 minutes and allowed to recover at 37° C. for 8 hours. Cells were lysed and luciferase activity was measured on a plate reader.
# [18] = tested on: hsf1 and client proteins of Hsp90 in Hs766T cells; test: Western blot, Hs766T
# [19] = tested on: hsf1 and client proteins of Hsp90 in MIA PaCa-2 cells; test: Western blot, MIA PaCa-2
# [20] = tested on: HSF1, Hsp70 and Hsp40 mRNA; test: HSF1, Hsp70 and Hsp40 mRNA levels; conditions: Control 1.0
# Method: Levels of HSF1, Hsp70 and Hsp40 mRNA were also determined in response to treatment with SX002 or X003 for 8 or 16 hours.
# [21] = Table 3, treated for 72 hours, NA = no activity
structure (smiles),measurement,setting,value
"CC1=C(CO)C(=O)O[C@@H]([C@@H](C)[C@H]2CC[C@H]3[C@@H]4C[C@H]5O[C@]56[C@@H](O)C=CC(=O)[C@]6(C)[C@H]4CC[C@]23C)C1 [Withaferin A, reference compound]",IC50,[1],260 nM
same,IC90,"[1]; B16-F10, Table 2",1230 nM
same,IC50,"[2]; Table 1, 72-hour treatment",3960 nM
same,IC50,[2]; [21],3150 nM
same,IC90,"[2]; SK-MEL-28, Table 2",680 nM
same,IC50,[3],800 nM
same,IC50,[4],2000 nM
same,IC90,[4]; Table 2,3600 nM
same,IC50,"[5]; Table 1, NCI-H727, 72-hour treatment, read-out: IC50",3880 nM
same,IC50,[6],200 nM
same,IC50,"[7]; Table 1, DRO81-1, 72-hour treatment, read-out: IC50",1090 nM
same,IC50,[8],1130 nM
same,IC50,"[9]; Homo sapiens, SUP-B15",132 nM
same,Fold Difference,[9]; MRC-5 vs SUP-B15 IC50,17X
same,IC50,[10],2200 nM
same,"cell death at 24 hours, trypan blue exclusion",[11],did not cause significant cell death at 24 hours at any concentration tested
same,induction of apoptosis,[12],almost all cells were in either late or early apoptosis
same,Cell Cycle (%) G0/G1,[13]; 80 nM,49.9%
same,Cell Cycle (%) G2/M,[13]; 80 nM,27.8%
same,Cell Cycle (%) S,[13]; 80 nM,22.2%
same,Cell Cycle (%) G0/G1,[13]; 160 nM,50.2%
same,Cell Cycle (%) G2/M,[13]; 160 nM,28.4%
same,Cell Cycle (%) S,[13]; 160 nM,21.4%
same,Cell Cycle (%) G0/G1,[13]; 320 nM,38.4%
same,Cell Cycle (%) G2/M,[13]; 320 nM,46.8%
same,Cell Cycle (%) S,[13]; 320 nM,14.8%
same,Cell Cycle (%) G0/G1,[13]; 640 nM,23.7%
same,Cell Cycle (%) G2/M,[13]; 640 nM,71%
same,Cell Cycle (%) S,[13]; 640 nM,5.3%
same,Cell Cycle (%) G0/G1,[13]; 1280 nM,47.1%
same,Cell Cycle (%) G2/M,[13]; 1280 nM,34.3%
same,Cell Cycle (%) S,[13]; 1280 nM,18.6%
same,combination index (CI) with imatinib,[14]; 0.25×-1×IC50 of each drug,1.3
same,synergy with imatinib,[14],only showed synergy at three of the concentrations tested
"CC(=O)OCC1=C(C)C[C@H]([C@@H](C)C2CC[C@H]3[C@@H]4C[C@H]5O[C@]56[C@@H](OC(C)=O)C=CC(=O)[C@]6(CO)[C@H]4CC[C@]23C)OC1=O (some centres unmarked) [Compound X002, 4,27-diactyl X001]",IC50,[1],98 nM
same,IC50,"[2]; Table 1, 72-hour treatment",810 nM
same,IC50,[2]; [21],1250 nM
same,IC50,[3],2240 nM
same,IC50,[4],140 nM
same,IC50,"[5]; NCI-H727, 72 h",370 nM
same,IC50,[6],410 nM
same,IC50,[7]; 72 h,480 nM
same,IC50,[15],400 nM
same,IC50,[16],220 nM
same,heat shock-induced increase in luciferase activity,[17],substantially reduced
same,stress and client protein response (western blot),[18],"induced oxidative and proteotoxic stress, while depleting hsf1 and client proteins of Hsp90"
same,stress and client protein response (western blot),[19],"induced oxidative and proteotoxic stress, while depleting hsf1 and client proteins of Hsp90"
same,HSF1 mRNA level,[20]; 8 hours,1.3
same,HSP40 mRNA level,[20]; 8 hours,13.1
same,HSP70 mRNA level,[20]; 8 hours,56.6
same,HSF1 mRNA level,[20]; 16 hours,1.1
same,HSP40 mRNA level,[20]; 16 hours,15.3
same,HSP70 mRNA level,[20]; 16 hours,196.7
CC1=C(C)C(=O)O[C@@H]([C@@H](C)[C@H]2CC[C@H]3[C@@H]4C[C@H]5O[C@]56[C@@H](O)C=CC(=O)[C@]6(CO)[C@H]4CC[C@]23C)C1 (stereo in doubt) [Compound X030],IC50,[15]; read-out: IC50,800 nM
same,IC50,"[16]; MIA PaCa2, read-out: IC50",800 nM
same,heat shock-induced increase in luciferase activity,[17],substantially reduced
